Laboratory results reported in ChEMBL document CHEMBL4507267 (2021).

Tests used:
[1] = biological target: AP2-associated protein kinase 1 (Homo sapiens) (UniProt Q2M2I8); settings: Compound concentration 1000.0 nM
[2] = test system: Tyrosine-protein kinase ABL1 (Homo sapiens), P00519 [F317I]; settings: Compound concentration 1000.0 nM
[3] = test system: Tyrosine-protein kinase ABL1 (Homo sapiens), P00519 [F317L]; settings: Compound concentration 1000.0 nM
[4] = biological target: Mitogen-activated protein kinase kinase kinase 6 (Homo sapiens) (UniProt O95382); settings: Compound concentration 1000.0 nM
[5] = biological target: Cyclin-dependent kinase-like 1 (Homo sapiens) (UniProt Q00532); settings: Compound concentration 1000.0 nM
[6] = biological target: Cyclin-dependent kinase-like 3 (Homo sapiens) (UniProt Q8IVW4); settings: Compound concentration 1000.0 nM
[7] = biological target: Casein kinase I isoform delta (Homo sapiens) (UniProt P48730); settings: Compound concentration 1000.0 nM
[8] = biological target: Serine/threonine-protein kinase DCLK1 (Homo sapiens) (UniProt O15075); settings: Compound concentration 1000.0 nM
[9] = biological target: Serine/threonine-protein kinase DCLK2 (Homo sapiens) (UniProt Q8N568); settings: Compound concentration 1000.0 nM
[10] = biological target: Dual specificity tyrosine-phosphorylation-regulated kinase 1A (Homo sapiens) (UniProt Q13627); settings: Compound concentration 1000.0 nM
[11] = biological target: Ephrin type-A receptor 2 (Homo sapiens) (UniProt P29317); settings: Compound concentration 1000.0 nM
[12] = biological target: Receptor tyrosine-protein kinase erbB-3 (Homo sapiens) (UniProt P21860); settings: Compound concentration 1000.0 nM
[13] = biological target: Mitogen-activated protein kinase 6 (Homo sapiens) (UniProt Q16659); settings: Compound concentration 1000.0 nM
[14] = biological target: Fibroblast growth factor receptor 2 (Homo sapiens) (UniProt P21802); settings: Compound concentration 1000.0 nM
[15] = biological target: Tyrosine-protein kinase Fgr (Homo sapiens) (UniProt P09769); settings: Compound concentration 1000.0 nM
[16] = test system: Receptor-type tyrosine-protein kinase FLT3 (Homo sapiens), P36888 [D835Y]; settings: Compound concentration 1000.0 nM
[17] = biological target: Vascular endothelial growth factor receptor 3 (Homo sapiens) (UniProt P35916); settings: Compound concentration 1000.0 nM
[18] = biological target: Rhodopsin kinase GRK7 (Homo sapiens) (UniProt Q8WTQ7); settings: Compound concentration 1000.0 nM
[19] = biological target: Homeodomain-interacting protein kinase 4 (Homo sapiens) (UniProt Q8NE63); settings: Compound concentration 1000.0 nM
[20] = biological target: Hormonally up-regulated neu tumor-associated kinase (Homo sapiens) (UniProt P57058); settings: Compound concentration 1000.0 nM
[21] = biological target: Tyrosine-protein kinase JAK3 (Homo sapiens) (UniProt P52333); settings: Compound concentration 1000.0 nM
[22] = test system: Mast/stem cell growth factor receptor Kit (Homo sapiens), P10721 [V559D,T670I]; settings: Compound concentration 1000.0 nM
[23] = biological target: Leucine-rich repeat serine/threonine-protein kinase 2 (Homo sapiens) (UniProt Q5S007); settings: Compound concentration 1000.0 nM
[24] = test system: Leucine-rich repeat serine/threonine-protein kinase 2 (Homo sapiens), Q5S007 [G2019S]; settings: Compound concentration 1000.0 nM
[25] = biological target: Mitogen-activated protein kinase kinase kinase 1 (Homo sapiens) (UniProt Q13233); settings: Compound concentration 1000.0 nM
[26] = biological target: Mitogen-activated protein kinase kinase kinase kinase 5 (Homo sapiens) (UniProt Q9Y4K4); settings: Compound concentration 1000.0 nM
[27] = biological target: Dual specificity mitogen-activated protein kinase kinase 5 (Homo sapiens) (UniProt Q13163); settings: Compound concentration 1000.0 nM
[28] = biological target: Dual specificity mitogen-activated protein kinase kinase 7 (Homo sapiens) (UniProt O14733); settings: Compound concentration 1000.0 nM
[29] = biological target: Serine/threonine-protein kinase Nek10 (Homo sapiens) (UniProt Q6ZWH5); settings: Compound concentration 1000.0 nM
[30] = biological target: Serine/threonine-protein kinase Nek6 (Homo sapiens) (UniProt Q9HC98); settings: Compound concentration 1000.0 nM
[31] = biological target: Mitogen-activated protein kinase 11 (Homo sapiens) (UniProt Q15759); settings: Compound concentration 1000.0 nM
[32] = biological target: Calcium-dependent protein kinase 1 (Plasmodium falciparum) (UniProt P62344); settings: Compound concentration 1000.0 nM
[33] = test system: Phosphatidylinositol 4,5-bisphosphate 3-kinase catalytic subunit alpha isoform (Homo sapiens), P42336 [E545K]; settings: Compound concentration 1000.0 nM
[34] = biological target: 1-phosphatidylinositol 3-phosphate 5-kinase (Homo sapiens) (UniProt Q9Y2I7); settings: Compound concentration 1000.0 nM
[35] = biological target: Serine/threonine-protein kinase N1 (Homo sapiens) (UniProt Q16512); settings: Compound concentration 1000.0 nM
[36] = biological target: Serine/threonine-protein kinase PLK4 (Homo sapiens) (UniProt O00444); settings: Compound concentration 1000.0 nM
[37] = biological target: Protein kinase C iota type (Homo sapiens) (UniProt P41743); settings: Compound concentration 1000.0 nM
[38] = biological target: Protein kinase C theta type (Homo sapiens) (UniProt Q04759); settings: Compound concentration 1000.0 nM
[39] = biological target: Serine/threonine-protein kinase D3 (Homo sapiens) (UniProt O94806); settings: Compound concentration 1000.0 nM
[40] = biological target: Tyrosine-protein kinase SYK (Homo sapiens) (UniProt P43405); settings: Compound concentration 1000.0 nM
[41] = biological target: Serine/threonine-protein kinase TAO2 (Homo sapiens) (UniProt Q9UL54); settings: Compound concentration 1000.0 nM
[42] = biological target: TRAF2 and NCK-interacting protein kinase (Homo sapiens) (UniProt Q9UKE5); settings: Compound concentration 1000.0 nM
[43] = biological target: Tyrosine-protein kinase TXK (Homo sapiens) (UniProt P42681); settings: Compound concentration 1000.0 nM
[44] = biological target: Serine/threonine-protein kinase 25 (Homo sapiens) (UniProt O00506); settings: Compound concentration 1000.0 nM
[45] = biological target: 5-hydroxytryptamine receptor 2C (Homo sapiens) (UniProt P28335); settings: Compound concentration 10.0 uM

Chain of Tyrosine-protein kinase ABL1 (Homo sapiens), P00519 [F317L] (P00519 whole entry F317L): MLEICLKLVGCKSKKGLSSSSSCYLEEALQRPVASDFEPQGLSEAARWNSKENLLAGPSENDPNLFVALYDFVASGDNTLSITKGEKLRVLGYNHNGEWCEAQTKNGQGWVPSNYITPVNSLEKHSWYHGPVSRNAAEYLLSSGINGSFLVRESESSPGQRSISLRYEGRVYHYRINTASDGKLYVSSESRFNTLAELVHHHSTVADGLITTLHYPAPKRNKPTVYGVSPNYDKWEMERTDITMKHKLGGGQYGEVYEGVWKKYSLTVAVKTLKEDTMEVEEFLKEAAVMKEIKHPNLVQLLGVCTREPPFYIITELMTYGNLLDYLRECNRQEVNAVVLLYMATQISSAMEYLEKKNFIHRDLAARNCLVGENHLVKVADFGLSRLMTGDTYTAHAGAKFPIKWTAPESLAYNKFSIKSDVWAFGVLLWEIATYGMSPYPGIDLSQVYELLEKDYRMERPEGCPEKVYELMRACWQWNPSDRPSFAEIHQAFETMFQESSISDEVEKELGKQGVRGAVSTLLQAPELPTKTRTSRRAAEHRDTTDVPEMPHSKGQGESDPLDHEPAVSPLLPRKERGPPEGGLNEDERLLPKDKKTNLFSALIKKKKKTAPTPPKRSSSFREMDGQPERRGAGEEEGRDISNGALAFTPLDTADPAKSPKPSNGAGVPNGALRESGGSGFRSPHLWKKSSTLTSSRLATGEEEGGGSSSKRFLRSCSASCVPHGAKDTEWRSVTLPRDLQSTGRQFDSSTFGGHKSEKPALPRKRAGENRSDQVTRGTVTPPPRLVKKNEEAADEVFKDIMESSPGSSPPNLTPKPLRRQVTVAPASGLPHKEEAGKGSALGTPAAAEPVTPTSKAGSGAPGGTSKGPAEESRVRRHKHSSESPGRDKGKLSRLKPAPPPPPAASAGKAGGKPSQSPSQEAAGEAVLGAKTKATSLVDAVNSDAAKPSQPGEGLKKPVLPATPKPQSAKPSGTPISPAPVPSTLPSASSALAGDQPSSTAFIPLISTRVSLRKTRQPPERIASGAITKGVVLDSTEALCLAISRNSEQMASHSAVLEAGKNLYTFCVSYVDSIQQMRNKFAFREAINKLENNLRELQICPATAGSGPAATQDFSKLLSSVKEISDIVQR
Chain of Serine/threonine-protein kinase D3 (Homo sapiens) (O94806 whole entry): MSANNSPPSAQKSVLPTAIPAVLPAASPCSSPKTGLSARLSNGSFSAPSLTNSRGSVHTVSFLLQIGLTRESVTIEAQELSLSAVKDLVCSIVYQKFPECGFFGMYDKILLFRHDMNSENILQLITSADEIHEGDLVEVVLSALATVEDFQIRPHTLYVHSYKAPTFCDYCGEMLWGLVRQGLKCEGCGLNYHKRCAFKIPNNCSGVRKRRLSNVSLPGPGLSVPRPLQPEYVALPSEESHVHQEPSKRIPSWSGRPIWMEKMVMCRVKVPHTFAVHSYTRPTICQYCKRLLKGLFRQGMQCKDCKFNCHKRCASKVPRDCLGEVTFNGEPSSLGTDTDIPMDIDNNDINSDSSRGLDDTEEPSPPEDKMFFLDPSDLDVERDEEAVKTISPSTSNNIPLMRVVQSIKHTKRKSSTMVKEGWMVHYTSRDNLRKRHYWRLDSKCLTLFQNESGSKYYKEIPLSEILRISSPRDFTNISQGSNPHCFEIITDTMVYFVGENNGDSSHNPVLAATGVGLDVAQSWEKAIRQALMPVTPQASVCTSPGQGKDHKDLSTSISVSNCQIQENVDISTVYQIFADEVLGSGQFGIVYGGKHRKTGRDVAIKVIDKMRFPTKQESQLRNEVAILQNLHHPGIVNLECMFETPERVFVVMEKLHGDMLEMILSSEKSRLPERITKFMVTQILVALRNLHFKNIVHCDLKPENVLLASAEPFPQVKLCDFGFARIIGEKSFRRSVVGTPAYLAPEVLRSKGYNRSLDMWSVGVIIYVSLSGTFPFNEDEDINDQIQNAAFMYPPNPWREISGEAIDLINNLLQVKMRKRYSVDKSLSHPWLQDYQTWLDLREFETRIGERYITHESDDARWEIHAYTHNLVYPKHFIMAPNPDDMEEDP
Chain of Tyrosine-protein kinase TXK (Homo sapiens) (P42681 whole entry): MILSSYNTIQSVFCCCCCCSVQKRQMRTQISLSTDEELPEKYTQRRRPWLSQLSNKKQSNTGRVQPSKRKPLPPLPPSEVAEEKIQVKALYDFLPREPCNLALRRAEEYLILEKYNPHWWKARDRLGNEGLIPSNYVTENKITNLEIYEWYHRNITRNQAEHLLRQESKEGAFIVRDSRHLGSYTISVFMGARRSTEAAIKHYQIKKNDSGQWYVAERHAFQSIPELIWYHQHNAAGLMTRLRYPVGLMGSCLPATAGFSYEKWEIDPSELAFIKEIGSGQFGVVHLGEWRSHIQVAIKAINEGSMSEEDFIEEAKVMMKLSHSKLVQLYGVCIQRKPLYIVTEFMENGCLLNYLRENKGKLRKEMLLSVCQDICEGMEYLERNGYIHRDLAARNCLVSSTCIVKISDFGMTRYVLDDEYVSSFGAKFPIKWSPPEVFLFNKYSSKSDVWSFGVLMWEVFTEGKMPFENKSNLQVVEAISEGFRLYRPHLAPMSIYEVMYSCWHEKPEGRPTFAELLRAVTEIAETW
Chain of Mitogen-activated protein kinase 6 (Homo sapiens) (Q16659 whole entry): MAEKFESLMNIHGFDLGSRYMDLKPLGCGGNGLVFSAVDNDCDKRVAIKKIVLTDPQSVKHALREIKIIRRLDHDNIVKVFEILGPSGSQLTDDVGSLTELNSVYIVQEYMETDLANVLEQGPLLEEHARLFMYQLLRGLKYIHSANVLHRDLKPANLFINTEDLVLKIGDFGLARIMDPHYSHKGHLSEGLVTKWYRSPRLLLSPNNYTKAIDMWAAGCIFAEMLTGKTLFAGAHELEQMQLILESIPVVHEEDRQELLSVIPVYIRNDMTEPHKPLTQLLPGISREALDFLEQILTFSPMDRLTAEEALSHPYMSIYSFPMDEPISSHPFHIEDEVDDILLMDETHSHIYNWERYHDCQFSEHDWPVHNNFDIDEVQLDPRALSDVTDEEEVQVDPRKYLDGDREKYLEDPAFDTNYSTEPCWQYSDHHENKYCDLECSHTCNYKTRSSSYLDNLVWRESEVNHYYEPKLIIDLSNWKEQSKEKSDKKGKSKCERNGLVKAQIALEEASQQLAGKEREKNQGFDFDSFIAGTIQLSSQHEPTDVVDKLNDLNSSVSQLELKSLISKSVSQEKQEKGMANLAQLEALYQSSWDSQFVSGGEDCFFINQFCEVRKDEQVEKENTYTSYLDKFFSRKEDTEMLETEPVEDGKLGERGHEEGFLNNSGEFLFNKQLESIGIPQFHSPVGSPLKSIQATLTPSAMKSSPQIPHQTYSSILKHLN
Chain of AP2-associated protein kinase 1 (Homo sapiens) (Q2M2I8 whole entry, looked up): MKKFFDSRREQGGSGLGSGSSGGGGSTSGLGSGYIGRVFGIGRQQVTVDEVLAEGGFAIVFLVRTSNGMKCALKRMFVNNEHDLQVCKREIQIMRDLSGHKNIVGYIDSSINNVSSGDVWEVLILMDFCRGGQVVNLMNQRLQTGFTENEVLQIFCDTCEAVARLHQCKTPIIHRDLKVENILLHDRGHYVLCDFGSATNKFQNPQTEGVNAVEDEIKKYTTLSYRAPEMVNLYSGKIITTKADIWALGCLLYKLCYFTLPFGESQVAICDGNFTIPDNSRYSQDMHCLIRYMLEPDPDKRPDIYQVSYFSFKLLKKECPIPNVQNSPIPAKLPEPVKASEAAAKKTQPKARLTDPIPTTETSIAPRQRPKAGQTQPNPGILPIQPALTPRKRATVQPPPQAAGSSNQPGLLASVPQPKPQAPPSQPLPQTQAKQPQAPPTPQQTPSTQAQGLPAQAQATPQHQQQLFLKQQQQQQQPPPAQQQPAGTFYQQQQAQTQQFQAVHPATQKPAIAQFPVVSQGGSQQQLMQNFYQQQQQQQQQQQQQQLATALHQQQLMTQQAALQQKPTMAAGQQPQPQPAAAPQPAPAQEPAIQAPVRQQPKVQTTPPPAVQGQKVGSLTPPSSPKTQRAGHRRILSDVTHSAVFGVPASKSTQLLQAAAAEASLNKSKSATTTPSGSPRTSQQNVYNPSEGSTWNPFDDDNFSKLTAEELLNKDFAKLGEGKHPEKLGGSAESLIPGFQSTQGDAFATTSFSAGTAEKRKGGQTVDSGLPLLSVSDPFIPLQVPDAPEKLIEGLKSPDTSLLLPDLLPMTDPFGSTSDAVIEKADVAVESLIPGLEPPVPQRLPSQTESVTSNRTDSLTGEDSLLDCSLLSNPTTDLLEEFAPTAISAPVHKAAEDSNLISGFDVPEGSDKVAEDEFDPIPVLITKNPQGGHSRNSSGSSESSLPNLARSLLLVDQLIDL
Chain of Cyclin-dependent kinase-like 3 (Homo sapiens) (Q8IVW4 whole entry, looked up, canonical isoform): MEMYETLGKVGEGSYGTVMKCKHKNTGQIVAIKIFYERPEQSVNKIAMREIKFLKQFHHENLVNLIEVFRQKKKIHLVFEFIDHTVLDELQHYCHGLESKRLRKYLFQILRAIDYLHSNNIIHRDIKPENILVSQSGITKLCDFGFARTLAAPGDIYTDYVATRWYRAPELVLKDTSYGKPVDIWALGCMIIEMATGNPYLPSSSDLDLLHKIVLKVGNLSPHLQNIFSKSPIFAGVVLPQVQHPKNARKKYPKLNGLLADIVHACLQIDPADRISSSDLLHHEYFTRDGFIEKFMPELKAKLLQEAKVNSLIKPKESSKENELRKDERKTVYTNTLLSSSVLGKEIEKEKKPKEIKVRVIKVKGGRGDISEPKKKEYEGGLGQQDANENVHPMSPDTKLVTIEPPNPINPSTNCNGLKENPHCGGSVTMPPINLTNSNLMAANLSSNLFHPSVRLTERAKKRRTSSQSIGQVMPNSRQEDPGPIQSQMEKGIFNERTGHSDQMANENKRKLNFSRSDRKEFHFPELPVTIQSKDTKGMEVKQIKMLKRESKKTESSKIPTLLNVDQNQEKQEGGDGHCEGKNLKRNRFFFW
Chain of Tyrosine-protein kinase ABL1 (Homo sapiens), P00519 [F317I] (P00519 whole entry F317I): as the sequence (P00519 whole entry F317L) above, with L317I counted along it

Cc1c(NC(=O)c2cc(C(N)=O)nc3cc(F)ccc23)c(C(F)(F)F)nn1Cc1ccc(C(C)(C)C)cc1 [BAY-588]
inactive: residual activity [1] 83% | residual activity [2] 100% | residual activity [3] 100% | residual activity [4] 100% | residual activity [5] 100% | residual activity [6] 87% | residual activity [7] 81% | residual activity [8] 91% | residual activity [9] 83% | residual activity [10] 100% | residual activity [11] 97% | residual activity [12] 94% | residual activity [13] 79% | residual activity [14] 100% | residual activity [15] 96% | residual activity [16] 100% | residual activity [17] 91% | residual activity [18] 100% | residual activity [19] 88% | residual activity [20] 100% | residual activity [21] 100% | residual activity [22] 100% | residual activity [23] 100% | residual activity [24] 100% | residual activity [25] 100% | residual activity [26] 92% | residual activity [27] 78% | residual activity [28] 100% | residual activity [29] 100% | residual activity [30] 86% | residual activity [31] 91% | residual activity [32] 100% | residual activity [33] 100% | residual activity [34] 100% | residual activity [35] 100% | residual activity [36] 100% | residual activity [37] 98% | residual activity [38] 91% | residual activity [39] 100% | residual activity [40] 90% | residual activity [41] 100% | residual activity [42] 98% | residual activity [43] 100% | residual activity [44] 100% | inhibition [45] -2.42%

Cc1c(NC(=O)c2cc(C(N)=O)nc3cc(F)ccc23)c(C(F)(F)F)nn1Cc1ccc(C#N)cc1 [BAY-876]
inactive: residual activity [1] 79% | residual activity [2] 75% | residual activity [3] 88% | residual activity [4] 75% | residual activity [5] 82% | residual activity [6] 80% | residual activity [7] 76% | residual activity [8] 85% | residual activity [9] 82% | residual activity [10] 84% | residual activity [11] 81% | residual activity [12] 92% | residual activity [13] 88% | residual activity [14] 88% | residual activity [15] 93% | residual activity [16] 92% | residual activity [17] 100% | residual activity [18] 75% | residual activity [19] 100% | residual activity [20] 77% | residual activity [21] 90% | residual activity [22] 89% | residual activity [23] 83% | residual activity [24] 100% | residual activity [25] 65% | residual activity [26] 74% | residual activity [27] 88% | residual activity [28] 79% | residual activity [29] 83% | residual activity [30] 100% | residual activity [31] 88% | residual activity [32] 92% | residual activity [33] 73% | residual activity [34] 92% | residual activity [35] 98% | residual activity [36] 100% | residual activity [37] 84% | residual activity [38] 80% | residual activity [39] 74% | residual activity [40] 95% | residual activity [41] 85% | residual activity [42] 92% | residual activity [43] 99% | residual activity [44] 100% | inhibition [45] 6.9%
